Experiments:
[1] = tested on: primary human epidermal keratinocytes (HEKs); test: Oxidative Stress RT2 Profiler PCR Expression Array analysis; type: cell-based; conditions: bixin 20 μM, 24 h
Method: Total cellular RNA was prepared according to a standard procedure using the RNeasy kit (Qiagen, Valencia, Calif., USA). Reverse transcription was performed using the RT^2 First Strand kit (SuperArray, Frederick, Md., USA) and 1 μg total RNA. The Human Oxidative Stress RT^2Profiler™ PCR Expression Array (SuperArray) profiling the expression of 84 stress-related genes was employed as described before. Gene-specific product was normalized to ACTB and quantified using the comparative (ΔΔCt) Ct method following the ABI Prism 7000 sequence detection system user guide. Expression values were averaged across three independent array experiments followed by statistical analysis.

[2] = tested on: NRF2; test: Immunoblot analysis (NRF2/KEAP1/targets) in HaCaT keratinocytes; type: cell-based, human
Method: (§1) Experiments were performed according to previously published procedures. Cells were harvested in sample buffer (50 mM Tris-HCl [pH 6.8], 2% sodium dodecyl sulfate (SDS), 10% glycerol, 100 mM dithiothreitol (DTT), and 0.1% bromophenol blue), boiled and sonicated. Total cell lysates were resolved by SDS-PAGE and subjected to immunoblot analyses with the indicated antibodies. For the ubiquitination assay, cells were cotransfected with expression vectors for NRF2 and HA-tagged ubiquitin (HA-Ub). Cells were left untreated or treated with either 5 μM sulforaphane (SF) or 40 μM bixin along with 10 μM MG132 for 4 h. Cells were harvested in buffer containing 2% SDS, 150 mM NaCl, 10 mM Tris-HCl (pH 8.0), and 1 mM DTT and boiled immediately. For immunoprecipitation, 1 μg of NRF2 antibody was incubated with the cell lysates at 4° C. overnight with protein A agarose beads (Invitrogen). Immunoprecipitated complexes were washed four times with RIPA buffer and eluted in sample buffer by boiling for 5 min. Samples were resolved by SDS-PAGE and immunoblotted with HA antibody. To measure the half-life of NRF2, HaCaT cells were either left untreated or treated with 5 μM bixin for 4 h, then 50 μM cycloheximide was added to block protein synthesis. Total cell lysates were collected at different time points and subjected to immunoblot analysis with NRF2 antibody. The relative intensity of the bands was quantified using the ChemiDoc CRS gel documentation system and Quantity One software (BioRad).

[3] = tested on: NRF2; test: Immunoblot analysis of NRF2 and NRF2 targets in HEKs; type: cell-based, human; conditions: ≤20 μM, 24 h, exposure time ≤24 h at 20 μM
Method: as §1, with “Total cell lysates were collected at different time points and subjected to immunoblot analysis with NRF2 antibody.” left out

[4] = tested on: NRF2; test: Cell-based NRF2 ubiquitination assay; design: species or system human; conditions: HaCaT, bixin 40 μM or SF 5 μM with MG132 10 μM, 4 h
Method: In order to test if bixin-based NRF2 activation occurs through inhibition of KEAP1-mediated ubiquitination, a cell-based ubiquitination assay was performed in HaCaT cells cotransfected with expression vectors for NRF2 and HA-tagged ubiquitin (HA-Ub) (FIG. 3F). To this end, cells were either exposed to bixin (40 μM) or sulforaphane (SF; 5 μM, positive control) or left untreated, combined with proteasome inhibition (MG132; 10 μM, 4 h).
Experiments were performed according to previously published procedures. Cells were harvested in sample buffer (50 mM Tris-HCl [pH 6.8], 2% sodium dodecyl sulfate (SDS), 10% glycerol, 100 mM dithiothreitol (DTT), and 0.1% bromophenol blue), boiled and sonicated. Total cell lysates were resolved by SDS-PAGE and subjected to immunoblot analyses with the indicated antibodies. For the ubiquitination assay, cells were cotransfected with expression vectors for NRF2 and HA-tagged ubiquitin (HA-Ub). Cells were left untreated or treated with either 5 μM sulforaphane (SF) or 40 μM bixin along with 10 μM MG132 for 4 h. Cells were harvested in buffer containing 2% SDS, 150 mM NaCl, 10 mM Tris-HCl (pH 8.0), and 1 mM DTT and boiled immediately. […] The relative intensity of the bands was quantified using the ChemiDoc CRS gel documentation system and Quantity One software (BioRad).

[5] = tested on: cutaneous NRF2; test: Cutaneous NRF2 activation after systemic administration (immunoblot, IHC, RT-PCR of skin); type: in vivo, SKH-1 mice
Description: To explore the potential systemic photoprotective activity of bixin in a murine skin sunburn model, the feasibility of upregulating cutaneous NRF2 activity by systemic administration was first examined. It has been reported earlier that efficient cutaneous accumulation of dietary carotenoids requires prolonged nutritional supplementation over weeks and that pharmacokinetic parameters of cutaneous delivery of dietary carotinoids differ between humans and mice. Therefore, in order to circumvent the more complex pharmacokinetics associated with dietary supplementation, an intraperitoneal (i.p.) route for bixin systemic administration followed by examination of cutaneous NRF2 status was chosen. After i.p. injection of bixin (200 mg/kg) performed in Nrf2^+/+ and Nrf2^−/− mice, plasma was collected at 0, 1, 2, 4, 8, 16, 24, 48 and 72 h after injection followed by HPLC-photodiode array detection (FIG. 4A-C). […] Next, efficacy of various bixin treatment regimens (differing with regard to total dose and time after injection) for maximum activation of the NRF2 pathway in murine skin was determined (FIG. 4D).
Next, the feasibility of bixin-induced cutaneous protection was studied in a solar UV photodamage model. Nrf2^+/+ and Nrf2^−/− mice were i.p. injected with either corn oil (carrier control) or bixin (200 mg/kg) 48 h before solar UV exposure (240 mJ/cm^2 UVB; 4.4 J/cm^2 UVA). 24 h after UV exposure back skin tissue was then collected followed by immunohistochemical (IHC) analysis. […] Moreover, UV exposure alone activated the NRF2 response in murine skin, effects not detectable in Nrf2^−/− mice (FIG. 5).
Total RNA was extracted from HaCaT cells and mouse skin tissues using TRIzol (Invitrogen). Equal amounts of mRNA were used to generate cDNA using the M-MLV Reverse Transcriptase synthesis kit according to the manufacturer's instructions (Promega). RT-PCR and primer sequences of NRF2, KEAP1, GCLM, AKR1C1 and GAPDH were described previously to evaluate mRNA expression using the LightCycler 480 system (Roche). Quantification of cDNA amount for mouse Nrf2, Keap1, Gclm, and Akr1c1 in each skin tissue sample was performed using the KAPA SYBR FAST qPCR Kit (Kapa Biosystems).
Nrf2^+/+ and Nrf2^−/− SKH-I mice were obtained by breeding Nrf2 heterozygous mice generated by back-crossing Nrf2^−/− C57BL/6 mice onto the SKH-1 hairless mouse genetic background for at least six generations (JAX® Mice, The Jackson Laboratory). All animals received water and food ad libitum and were handled according to the Guide for the Care and Use of Laboratory Animals; the protocols were approved by the University of Arizona Institutional Animal Care and Use Committee. Eight-week-old Nrf2^+/+ and Nrf2^−/− mice were randomly allocated into four groups (n=6): (i) control (corn oil); (ii) bixin (200 mg/kg, dissolved in corn oil); (iii) UV; (iv) bixin+UV. Bixin was administered through intraperitoneal (i.p.) injection 48 h before UV exposure.
24 h after UV exposure, the mice were euthanized and back skin was collected and divided into two parts: one part was frozen in liquid nitrogen for total RNA extraction and protein analysis; the other part was fixed in 10% buffered formalin and embedded in paraffin for histological and immunohistochemical analyses. Tissue sections (4 μm) were baked and deparaffinized. Hematoxylin and eosin (H&E) staining was performed for pathological examination. […]

COC(=O)/C=C/C(C)=C\C=C\C(C)=C\C=C\C=C(C)\C=C\C=C(C)\C=C\C(=O)O [bixin]
expression of NRF2 target genes (AKR1C2, GCLC, NQO1, SLC7A11, FTH1, TXNRD1, NCF2, SRXN) [1]: Pronounced upregulation
NRF2 target proteins GCLM and AKR1C1 [2]: upregulated
bixin-induced Nrf2 upregulation after 24 h preincubation using NAC [2]: did not attenuate
duration of NRF2 upregulation ([2]; bixin 20 μM): sustained over the course of the 24 h treatment
time to detectable induction of NRF2 protein levels ([2]; bixin 20 μM): ≤ 2 h
KEAP1 protein levels ([2]; bixin 20 μM, 0-48 h): no changes
duration of GCLM upregulation ([2]; bixin 20 μM, 48 h): persisted over an extended period
bixin-induced upregulation of Nrf2 protein levels under cotreatment with anti-oxidants (tiron, trolox, NAC) ([2]; bixin 40 μM, 4 h, 1 h antioxidant pretreatment): not attenuated
protein levels of NRF2 and NRF2 targets (NQO1, AKR1C2, HO-1, TrxR, GCLM, SRXN1, FTH1) [3]: increased protein levels
NRF2-ubiquitination versus untreated control [4]: dramatic reduction
skin mRNA levels of Nrf2 ([5]; 200 mg/kg i.p.): did not increase
skin protein or mRNA levels of Keap1 ([5]; 200 mg/kg i.p.): no effects
upregulation of cutaneous protein levels of NRF2 and its targets (GCLM and AKR1C1), comparison of regimens ([5]; 200 mg/kg, 72 h after injection, Nrf2+/+ mice): most effective
cutaneous NRF2 pathway (NRF2, GCLM, AKR1C1 protein and mRNA) ([5]; Nrf2+/+ mice, 200 mg/kg i.p.): dramatically induced
activation of NRF2 pathway related activity within skin cells ([5]; dosage amounts less than 10 mg/kg): insufficient

— US20180243190A1, “ACTIVATORS OF NRF2-DEPENDENT PHOTOPROTECTION AND RELATED USES THEREOF” (THE ARIZONA BOARD OF REGENTS ON BEHALF OF THE UNIVERSITY OF …, priority 2015, published 2018)
